# Target: human MGL from HeLa cells (Homo sapiens (Human), UniProt Q99685)
# Assay: MGL in vitro activity assay: cleavage of [glycerol-1,3-3H]-oleyl glycerol, activated carbon filtration
# Assay type: biochemical
# Details: 300 nM [Glycerol-1,3-3H]-oleyl glycerol, endogenously expressed MGL from HeLa cells, one hour incubation
# Procedure: The assay used to measure the in vitro activity of MGL is adapted from the assay used for another serine hydrolase (FAAH) described in Wilson et al., 2003 (A high-throughput-compatible assay for determining the activity of fatty acid amide hydrolase. Wilson S J, Lovenberg T W, Barbier A J. Anal Biochem. 2003 Jul. 15; 318(2):270-5.). The assay consists of combining endogenously expressed MGL from HeLa cells with test compounds, adding [glycerol-1,3-^3H]-oleyl glycerol, incubating for one hour, and then measuring the amount of cleaved [1,3-^3H]-glycerol that passes through an activated carbon filter. The amount of cleaved, tritiated glycerol passing through the carbon filter is proportional to the activity of the MGL enzyme in a particular well/test condition.
# Standard conditions for this assay combine 300 nM [Glycerol-1,3-^3H]-oleyl glycerol with human MGL from HeLa cells and test compounds for one hour, after which the reaction is filtered through activated carbon and tritium is measured in the flow through. The test compound concentration in screening mode is 10 μM, while the highest compound concentration in IC50 assays is determined empirically. MGL is the predominant hydrolase in HeLa cells/cell homogenates.
# human MGL from HeLa cells, sequence (Q99685 whole entry): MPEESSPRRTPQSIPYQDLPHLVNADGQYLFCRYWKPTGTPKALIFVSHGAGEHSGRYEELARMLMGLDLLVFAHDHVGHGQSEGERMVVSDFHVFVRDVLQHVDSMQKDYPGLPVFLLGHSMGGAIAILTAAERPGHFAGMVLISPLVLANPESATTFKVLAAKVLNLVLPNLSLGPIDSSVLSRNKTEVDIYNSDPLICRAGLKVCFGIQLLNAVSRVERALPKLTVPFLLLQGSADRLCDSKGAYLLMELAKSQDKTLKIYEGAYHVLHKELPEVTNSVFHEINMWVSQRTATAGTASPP
row,Compound,IC50
1,"Cc1cc(C(=O)N2CCc3c(nn(C)c3-c3cc(C(F)(F)F)nn3C)[C@@H]2C)c2ccccc2n1 [Example 9, (S)-(2,7-Dimethyl-3-(1-methyl-3-(trifluoromethyl)-1H-pyrazol-5-yl)-2,4,5,7-tetrahydro-6H-pyrazolo[3,4-c]pyridin-6-yl)(2-methylquinolin-4-yl)methanone]",12 nM
2,"C[C@H]1c2nn(C)c(-c3cnn(C(F)F)c3)c2CCN1C(=O)c1ccc2ncccc2c1 [Example 69, (S)-(3-(1-(Difluoromethyl)-1H-pyrazol-4-yl)-2,7-dimethyl-2,4,5,7-tetrahydro-6H-pyrazolo[3,4-c]pyridin-6-yl)(quinolin-6-yl)methanone]",89 nM
3,"C[C@H]1c2nn(C)c(-c3cc(C(F)(F)F)nn3C)c2CCN1C(=O)c1cccc(N2CC3(COC3)C2)c1Cl [Example 4, (S)-(2-Chloro-3-(2-oxa-6-azaspiro[3.3]heptan-6-yl)phenyl)(2,7-dimethyl-3-(1-methyl-3-(trifluoromethyl)-1H-pyrazol-5-yl)-2,4,5,7-tetrahydro-6H-pyrazolo[3,4-c]pyridin-6-yl)methanone]",20 nM
4,"C[C@H]1c2nn(C)c(-c3cc(C(F)(F)F)nn3C)c2CCN1C(=O)c1ccc2ncsc2c1 [Example 56, (S)-Benzo[d]thiazol-6-yl(2,7-dimethyl-3-(1-methyl-3-(trifluoromethyl)-1H-pyrazol-5-yl)-2,4,5,7-tetrahydro-6H-pyrazolo[3,4-c]pyridin-6-yl)methanone]",26 nM
5,"C[C@H]1c2nn(C)c(-c3cn(C)nc3C(F)(F)F)c2CCN1C(=O)c1ccc2c(c1)OCCC2 [Example 61, (S)-Chroman-7-yl(2,7-dimethyl-3-(1-methyl-3-(trifluoromethyl)-1H-pyrazol-4-yl)-2,4,5,7-tetrahydro-6H-pyrazolo[3,4-c]pyridin-6-yl)methanone]",7180 nM
6,"COc1ccc(C(=O)N2CCc3c(nn(C)c3-c3cc(C(F)(F)F)nn3C)[C@@H]2C)c(C)c1 [Example 40, (S)-(2,7-Dimethyl-3-(1-methyl-3-(trifluoromethyl)-1H-pyrazol-5-yl)-2,4,5,7-tetrahydro-6H-pyrazolo[3,4-c]pyridin-6-yl)(4-methoxy-2-methylphenyl)methanone]",230 nM
7,"Cn1nc(C(F)(F)F)cc1-c1c2c(nn1C)[C@@H]1CCC[C@H](C2)N1C(=O)c1cnc2cccc(F)c2c1 [Example 83, (5-Fluoroquinolin-3-yl)((5R,9S)-2-methyl-3-(1-methyl-3-(trifluoromethyl)-1H-pyrazol-5-yl)-4,5,6,7,8,9-hexahydro-2H-5,9-epiminocycloocta[c]pyrazol-10-yl)methanone]",40 nM
8,"Cc1ccc(C(=O)N2CCc3c(nn(C)c3-c3cc(C(F)(F)F)nn3C)[C@@H]2C)cc1C [Example 43, (S)-(2,7-Dimethyl-3-(1-methyl-3-(trifluoromethyl)-1H-pyrazol-5-yl)-2,4,5,7-tetrahydro-6H-pyrazolo[3,4-c]pyridin-6-yl)(3,4-dimethylphenyl)methanone]",33 nM
9,"COc1cccc(C(=O)N2CCc3c(nn(C)c3-c3c(C)cnn3C)[C@@H]2C)c1C [Example 2, (S)-(3-(1,4-Dimethyl-1H-pyrazol-5-yl)-2,7-dimethyl-2,4,5,7-tetrahydro-6H-pyrazolo[3,4-c]pyridin-6-yl)(3-methoxy-2-methylphenyl)methanone]",10000 nM
10,"Cc1cc(C(=O)N2CCc3c(nn(C)c3-c3cc(C(F)(F)F)nn3C)[C@@H]2C)c2cnn(C)c2n1 [Example 15, (S)-(1,6-Dimethyl-1H-pyrazolo[3,4-b]pyridin-4-yl)(2,7-dimethyl-3-(1-methyl-3-(trifluoromethyl)-1H-pyrazol-5-yl)-2,4,5,7-tetrahydro-6H-pyrazolo[3,4-c]pyridin-6-yl)methanone]",56 nM
11,"C[C@H]1c2nn(C)c(-c3cc(C(F)(F)F)nn3C)c2CCN1C(=O)c1nn(C)c2ccc(F)cc12 [Example 22, (S)-(2,7-Dimethyl-3-(1-methyl-3-(trifluoromethyl)-1H-pyrazol-5-yl)-2,4,5,7-tetrahydro-6H-pyrazolo[3,4-c]pyridin-6-yl)(5-fluoro-1-methyl-1H-indazol-3-yl)methanone]",30 nM
12,"Cn1nc(C(F)(F)F)cc1-c1c2c(nn1C)[C@@H]1CCC[C@H](C2)N1C(=O)c1nn(C)c2ccc(F)cc12 [Example 86, (5-Fluoro-1-methyl-1H-indazol-3-yl)((5R,9S)-2-methyl-3-(1-methyl-3-(trifluoromethyl)-1H-pyrazol-5-yl)-4,5,6,7,8,9-hexahydro-2H-5,9-epiminocycloocta[c]pyrazol-10-yl)methanone]",18 nM
13,"C[C@H]1c2nn(C)c(-c3cnn(C)c3C(F)(F)F)c2CCN1C(=O)c1nn(C)c2cc(F)cc(F)c12 [Example 27, (S)-(4,6-Difluoro-1-methyl-1H-indazol-3-yl)(2,7-dimethyl-3-(1-methyl-5-(trifluoromethyl)-1H-pyrazol-4-yl)-2,4,5,7-tetrahydro-6H-pyrazolo[3,4-c]pyridin-6-yl)methanone]",1170 nM
14,"C[C@H]1c2nn(C)c(-c3cc(C(F)(F)F)nn3C)c2CCN1C(=O)c1cccc(OC(F)(F)F)c1F [Example 112, (S)-(2,7-Dimethyl-3-(1-methyl-3-(trifluoromethyl)-1H-pyrazol-5-yl)-2,4,5,7-tetrahydro-6H-pyrazolo[3,4-c]pyridin-6-yl)(2-fluoro-3-(trifluoromethoxy)phenyl)methanone]",86 nM
15,"Cc1cccc(C(=O)N2[C@@H]3CCC[C@H]2c2nn(C)c(-c4cc(C(F)(F)F)nn4C)c2C3)c1 (stereo in doubt) [Example 76, ((5R,9S)-2-Methyl-3-(1-methyl-3-(trifluoromethyl)-1H-pyrazol-5-yl)-4,5,6,7,8,9-hexahydro-2H-5,9-epiminocycloocta[c]pyrazol-10-yl)(m-tolyl)methanone]",68 nM
16,"C[C@H]1c2nn(C)c(-c3cc(C(F)(F)F)nn3C)c2CCN1C(=O)c1cnn2cccc(F)c12 [Example 11, (S)-(2,7-Dimethyl-3-(1-methyl-3-(trifluoromethyl)-1H-pyrazol-5-yl)-2,4,5,7-tetrahydro-6H-pyrazolo[3,4-c]pyridin-6-yl)(4-fluoropyrazolo[1,5-a]pyridin-3-yl)methanone]",6.2 nM
17,"C[C@H]1c2nn(C)c(-c3cc(C(F)(F)F)n(C)n3)c2CCN1C(=O)c1cccc2cnn(C)c12 [Example 117, (S)-(2,7-Dimethyl-3-(1-methyl-5-(trifluoromethyl)-1H-pyrazol-3-yl)-2,4,5,7-tetrahydro-6H-pyrazolo[3,4-c]pyridin-6-yl)(1-methyl-1H-indazol-7-yl)methanone]",160 nM
18,"COc1cccc(C(=O)N2CCc3c(nn(C)c3-c3c(C(F)(F)F)nn(C)c3C)[C@@H]2C)c1C [Example 3, (S)-(3-(1,5-Dimethyl-3-(trifluoromethyl)-1H-pyrazol-4-yl)-2,7-dimethyl-2,4,5,7-tetrahydro-6H-pyrazolo[3,4-c]pyridin-6-yl)(3-methoxy-2-methylphenyl)methanone]",6700 nM
19,"COc1cc(C)cc(C(=O)N2[C@@H]3CCC[C@H]2c2nn(C)c(-c4cc(C(F)(F)F)nn4C)c2C3)c1 (stereo in doubt) [Example 77, (3-Methoxy-5-methylphenyl)((5R,9S)-2-methyl-3-(1-methyl-3-(trifluoromethyl)-1H-pyrazol-5-yl)-4,5,6,7,8,9-hexahydro-2H-5,9-epiminocycloocta[c]pyrazol-10-yl)methanone]",26 nM
